The source of these data is US8142812B2, “Chemical carrier based on a beta-limit dextrin” (Glycologic Limited, priority 2002, dated 2012).

A short description of this series: Drug interaction and stability with β-limit dextrin in solution. The format is physicochemical. The text has this:
There are many potential applications with respect to dispersing and solubilising insoluble compounds. […] Drug interaction and stability with β-limit dextrin in solution

The mark [1] stands for this setting: drug 1% in β-limit dextrin (5%).
Where [2] appears, read: drug 1% in β-limit dextrin (10%).

Each structure is given as a SMILES string.

Turning to `O=C1O[C@H]([C@@H](O)CO)C(O)=C1O` [Ascorbic acid], the “Drug interaction and stability in solution” value is, setting by setting: (drug 1% in Water) “Dissolved”; under setting [1], “Dissolved”; under setting [2], “Dissolved”.
As to `CC(=O)Oc1ccccc1C(=O)O` [Aspirin], the “Drug interaction and stability in solution” value (drug 1% in Water) is listed as “Not suspended”; the “Drug interaction and stability in solution” value under setting [1] was “Suspended”; the “Drug interaction and stability in solution” value under setting [2] is listed as “Suspended”.
As to `Cn1c(=O)c2[nH]cnc2n(C)c1=O` [Theophylline], the “Drug interaction and stability in solution” value reads like this: (drug 1% in Water) “Not suspended”; under setting [1], “Suspended”; under setting [2], “Suspended”.
